One data set relates to Giardia lamblia. In words: Inhibition of growth of Giardia lamblia in in vitro culture. It counts as cell-based. The settings on record: read-out: IC50 Giardia lamblia.
In data set [1] the target is T1, topoisomerase II isolated from Drosophila melanogaster (Drosophila melanogaster, UniProt P15348).
T1 construct: topoisomerase II isolated from Drosophila melanogaster; from tissue
T1 sequence (P15348 1-1447): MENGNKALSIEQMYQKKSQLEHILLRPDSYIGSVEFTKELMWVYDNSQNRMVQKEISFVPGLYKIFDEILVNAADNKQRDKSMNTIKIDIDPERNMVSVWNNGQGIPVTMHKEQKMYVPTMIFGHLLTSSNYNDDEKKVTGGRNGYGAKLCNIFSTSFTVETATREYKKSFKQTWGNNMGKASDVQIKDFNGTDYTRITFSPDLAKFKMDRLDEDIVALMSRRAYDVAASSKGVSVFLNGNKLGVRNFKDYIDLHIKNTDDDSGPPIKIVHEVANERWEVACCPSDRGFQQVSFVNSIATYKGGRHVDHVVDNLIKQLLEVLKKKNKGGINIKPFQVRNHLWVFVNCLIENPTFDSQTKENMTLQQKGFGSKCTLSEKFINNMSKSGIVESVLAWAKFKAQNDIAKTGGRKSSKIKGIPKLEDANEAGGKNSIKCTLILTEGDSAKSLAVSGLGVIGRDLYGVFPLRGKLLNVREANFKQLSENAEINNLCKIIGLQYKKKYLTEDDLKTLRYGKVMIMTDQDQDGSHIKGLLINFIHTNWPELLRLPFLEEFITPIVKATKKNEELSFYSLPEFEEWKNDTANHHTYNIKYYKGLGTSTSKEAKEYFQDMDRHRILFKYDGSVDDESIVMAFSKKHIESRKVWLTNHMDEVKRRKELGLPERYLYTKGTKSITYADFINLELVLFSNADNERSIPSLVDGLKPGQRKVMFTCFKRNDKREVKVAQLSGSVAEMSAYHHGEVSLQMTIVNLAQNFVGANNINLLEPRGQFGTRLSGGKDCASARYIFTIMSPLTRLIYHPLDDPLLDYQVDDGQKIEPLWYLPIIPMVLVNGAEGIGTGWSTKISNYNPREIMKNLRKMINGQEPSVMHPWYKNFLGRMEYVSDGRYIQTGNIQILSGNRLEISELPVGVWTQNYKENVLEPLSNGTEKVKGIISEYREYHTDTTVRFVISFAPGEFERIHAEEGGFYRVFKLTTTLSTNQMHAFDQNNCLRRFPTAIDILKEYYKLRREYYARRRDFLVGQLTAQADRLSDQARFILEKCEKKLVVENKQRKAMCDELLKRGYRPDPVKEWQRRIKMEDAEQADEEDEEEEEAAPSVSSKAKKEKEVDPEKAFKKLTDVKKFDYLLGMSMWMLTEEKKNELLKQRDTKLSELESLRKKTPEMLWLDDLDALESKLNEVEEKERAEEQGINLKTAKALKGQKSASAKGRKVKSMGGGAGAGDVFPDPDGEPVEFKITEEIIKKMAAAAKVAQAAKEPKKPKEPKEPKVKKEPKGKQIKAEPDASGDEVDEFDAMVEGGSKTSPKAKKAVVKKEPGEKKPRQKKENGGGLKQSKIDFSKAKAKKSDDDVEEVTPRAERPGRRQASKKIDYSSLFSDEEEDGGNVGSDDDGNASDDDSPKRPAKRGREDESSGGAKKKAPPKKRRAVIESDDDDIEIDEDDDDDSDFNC
In words: Topoisomerase II inhibition (Drosophila melanogaster enzyme). The data set is classed as biochemical.

For data set [2], the target named is topoisomerase II isolated from Giardia lamblia. In words: Topoisomerase II inhibition (Giardia lamblia enzyme). It counts as biochemical. Particulars: 50% inhibition of topoisomerase II isolated from Giardia lamblia; read-out: IC50 Topoisomerase Activity II G.l.
The subject of another data set is Pneumocystis carinii. The data set can be described thus: In vivo activity against Pneumocystis carinii (lung cyst counts and toxicity). Particulars: for Toxicity: toxicity scale, larger value = more severe, values greater than 2 indicate deaths of some animals.
Another data set deals with poly A poly T. In words: DNA thermal melting (increase in Tm of poly A poly T). The data set is classed as binding. The settings on record: MES buffer pH 6.0, 0.1 M NaCl, ratio of 0.3 moles of compound to nucleic acid bases. As for the experimental part:
(§1) Thermal melting curves for DNA and its complexes with compounds from Examples 4, 6, and 7-9 are determined as previously described in F.A. Tanious, et al., J.Biomol. Structure & Dynamics 11:1063 (1994) and W.D. Wilson, et al., Biochemistry 32:4098 (1993), by following the adsorption change at 260 nm as a function of temperature. Tm values were determined from first derivative plots. Compounds are compared by the increase in Tm (ΔTm=Tm of complex - Tm of the free nucleic acid) they produce in MES buffer (0.01M 2-(N-morpholino) ethanesulfonic acid, 0.001 M EDTA, 0.1 M NaCl adjusted to pH 6.0) at saturating amounts of compound (a ratio of 0.3 moles of compound to nucleic acid bases) unless otherwise indicated.

Data set [3] relates to oligomer d(GCGCAATTGCGC)2. The data set can be described thus: DNA thermal melting (increase in Tm of oligomer). The data set is classed as binding. Particulars: increase in thermal melting of the oligomer d(GCGCAATTGCGC)2; MES buffer pH 6.0. As for the experimental part:
as §1

Data set [4] addresses topoisomerase I isolated from Pneumocystis carinii. In words: Topoisomerase I inhibition (Pneumocystis carinii enzyme). The settings on record: 50% inhibition of topoisomerase I isolated from Pneumocystis carinii. It counts as biochemical.
[5] abbreviates: 50% inhibition of growth of Giardia lamblia in in vitro culture.
Setting [6] is: 50% inhibition of topoisomerase II isolated from Drosophila melanogaster, read-out: IC50 Topoisomerase Activity II D.m.
[7] abbreviates: Pneumocystis carinii, iv, read-out: cyst/g lung (% of control).

Read-outs that look alike come from different tables or passages of the source.

On to “2,5-bis[2-(imidazolinyl)phenyl]-3,4-bis(methoxymethyl)furan [Compound 18]”, for which the IC50 in the data set with Giardia lamblia (setting [5]) is 4.42 µM; in data set [1] (setting [6]), 12.5 µM; in data set [2], 0.8 to 1 µM.

For `c1cc(-c2ccc(-c3ccc(C4=NCCN4)cc3)o2)ccc1C1=NCCN1` [Compound 2, 2,5-bis[4-(2-imidazolinyl)phenyl]furan], the IC50 with Giardia lamblia (Giardia duodenalis) was found to be 0.8 µM; in data set [1], 8 µM. Also, the response vs control in vivo at 23.3 µM with Pneumocystis carinii (setting [7]) came out at 35.4%. For the same molecule, the Toxicity entry in the data set with Pneumocystis carinii (dosage 23.3 µM/kg/day intravenous) is “+2”.

For the molecule `c1cc(-c2ccc(-c3ccc(C4=NCCCCN4)cc3)o2)ccc1C1=NCCCCN1` [Compound 4, 2,5-bis[4-(4,5,6,7-tetrahydro-1H-1,3-diazepin-2-yl)phenyl]furan], the values for the IC50 (in the data set with Giardia lamblia (Giardia duodenalis); in data set [1]; in data set [2]) were 1.1 µM, 25 to 50 µM and 1.5 µM, respectively. For the same molecule, in the data set with poly A poly T, the ΔTm DNA is greater than 28 °C. For the same molecule, the response vs control in vivo at 0.18 µM with Pneumocystis carinii (setting [7]) worked out at 115%. Moreover, in the data set with Pneumocystis carinii (setting [7]), the response vs control in vivo at 2.3 µM is 2.9%. Besides, the Toxicity in the data set with Pneumocystis carinii (dosage 0.18 µM/kg/day intravenous) is listed as 0; with Pneumocystis carinii (dosage 2.3 µM/kg/day intravenous), “+3”. The ΔTm Oligomer in data set [3] came to 10.7 °C.

For `c1cc(-c2ccc(-c3ccc(C4=NC5CCCCC5N4)cc3)o2)ccc1C1=NC2CCCCC2N1` (centres unmarked) [Compound 5, 2,5-bis[4-(3a,4,5,6,7,7a-hexahydro-1H-benzimidazol-2-yl)phenyl]furan], the IC50 is 1.7 µM in the data set on Giardia lamblia (Giardia duodenalis), 50 µM in data set [1] and 3 to 6 µM in data set [2]. For the same molecule, the ΔTm DNA with poly A poly T turned out to be 24.5 °C. Further, the response vs control in vivo at 9.2 µM with Pneumocystis carinii (setting [7]) was 80.5%. The Toxicity entry with Pneumocystis carinii (dosage 9.2 µM/kg/day intravenous) is reported as “+1”. Besides, the ΔTm Oligomer in data set [3] is 5.6 °C.

Take `OCCN1CCN=C1c1ccc(-c2ccc(-c3ccc(C4=NCCN4CCO)cc3)o2)cc1` [Compound 6, 2,5-bis{4[2-(N-2-hydroxyethyl)imidazolinyl]-phenyl}furan]: the concentration for half-maximal inhibition (IC50) was 5.3 µM in the data set on Giardia lamblia (Giardia duodenalis), 200 µM in data set [1] and 20 µM in data set [2]. Further, in the data set with poly A poly T, the ΔTm DNA worked out at 12.2 °C. The response vs control in vivo at 4.8 µM in the data set on Pneumocystis carinii (setting [7]) was 107%. Moreover, in the data set on Pneumocystis carinii (dosage 4.8 µM/kg/day intravenous), the Toxicity result is reported as “+3”. The ΔTm Oligomer in data set [3] is 1 °C.

For `CCN1CCN=C1c1ccc(-c2ccc(-c3ccc(C4=NCCN4CC)cc3)o2)cc1` [Compound 7, 2,5-bis-{4-[2-(N-ethylimidazolinyl)]phenyl}furan], in the data set with poly A poly T, the ΔTm DNA was found to be 11.8 °C. Moreover, the IC50 in data set [2] came out at 25 µM.

Turning to `Cc1ccc(Oc2cc(-c3ccc(C4=NCCCN4)cc3)oc2-c2ccc(C3=NCCCN3)cc2)cc1` [Compound 10], the IC50 in the data set with Giardia lamblia (Giardia duodenalis) was 3.3 µM; in data set [1] it was 50 to 100 µM; in data set [2], 1 to 3 µM. Besides, in the data set on poly A poly T, the ΔTm DNA was greater than 28 °C. For the same molecule, in the data set with Pneumocystis carinii (dosage 1.8 µM/kg/day intravenous), the Toxicity entry is “+3”.

As for `NCCNC(=O)c1ccc2[nH]c(-c3ccc(-c4ccc(-c5ccc(-c6nc7cc(C(=O)NCCN)ccc7[nH]6)cc5)o4)cc3)nc2c1` [Compound 11, 2,5-bis{4-[5-(N-2-aminoethylamido)benzimidazol-2-yl]phenyl}furan], the IC50 with Giardia lamblia (Giardia duodenalis) is 0.62 µM; in data set [1], greater than 300 µM; in data set [2], 5 µM. Moreover, in the data set with Pneumocystis carinii (dosage 4.1 µM/kg/day intravenous), the Toxicity entry is on record as “+4”.

Consider `CN(C)NC(=O)c1ccc(-c2ccc(-c3ccc(C(=O)NN(C)C)cc3)o2)cc1` [Compound 12, 2,5-bis(4-N,N-dimethylcarboxhydrazidephenyl) furan], for which the values for the IC50 (with Giardia lamblia (setting [5]); in data set [1] (setting [6]); in data set [2]) were 0.35 µM, 30 to 60 µM and 0.6 to 1.2 µM, respectively. The “cyst/g lung (% of control)” value in the data set on Pneumocystis carinii (dosage 7.78 µM/kg/day intravenous, percentage of saline-treated controls) was 20.7 % of control. Also, the Toxicity entry in the data set with Pneumocystis carinii (dosage 7.78 µM/kg/day intravenous) was “+3”.

As for `CN(C)CCCNC(=N)c1ccc(-c2ccc(-c3ccc(C(=N)NCCCN(C)C)cc3)o2)cc1` [Compound 14, 2,5-bis{4-[3-(dimethylaminopropyl)amidino]phenyl}furan], the half-maximal inhibitory concentration (IC50) was 8.98 µM in the data set on Giardia lamblia (Giardia duodenalis), greater than 6.2 µM in data set [1] and 0.25 µM in data set [2]. For the same molecule, the ΔTm DNA in the data set on poly A poly T was greater than 28 °C. Also, the Toxicity entry with Pneumocystis carinii (dosage 3.9 µM/kg/day intravenous) is listed as “+3”.

Consider `N=C(NC1CC1)c1ccc(-c2ccc(-c3ccc(C(=N)NC4CC4)cc3)o2)cc1` [Compound 15, 2,5-bis-[4-N-(cyclopropylamidino)phenyl]furan], for which the values for the IC50 (with Giardia lamblia (Giardia duodenalis); in data set [2]) were 0.63 µM and 1.25 µM, respectively. Moreover, the ΔTm DNA in the data set with poly A poly T is greater than 28 °C.

As to `N=C(NCCO)c1ccc(-c2ccc(-c3ccc(C(=N)NCCO)cc3)o2)cc1` [Compound 16, 2,5-bis-{4-[(N-2-hydroxyethyl)amidino]phenyl}furan], the figures for the IC50 (with Giardia lamblia (Giardia duodenalis); in data set [1]; in data set [2]) were 0.78 µM, 25 to 50 µM and 1.2 to 2.5 µM, respectively. The ΔTm DNA in the data set on poly A poly T stood at 21.1 °C. Moreover, in the data set with Pneumocystis carinii (dosage 10.4 µM/kg/day intravenous), the Toxicity was 0.

Take `CN(C)CCNC(=N)c1ccc(-c2ccc(-c3ccc(C(=N)NCCN(C)C)cc3)o2)cc1` [Compound 17, 2,5-bis[4-N-(dimethylaminoethyl)amidino]phenyl furan]: the IC50 in the data set with Giardia lamblia (Giardia duodenalis) was found to be 10.8 µM; in data set [1], 12.5 µM; in data set [2], 0.8 µM.

Consider `N=C(NCCCN)c1ccc(-c2ccc(-c3ccc(C(=N)NCCCN)cc3)o2)cc1` [Compound 19, 2,5-bis-{4-[N-(3-aminopropyl)amidino]phenyl}furan], for which the IC50 turned out to be 0.059 µM in the data set on Giardia lamblia (Giardia duodenalis), 25 µM in data set [1] and 0.625 µM in data set [2].

As for `Cc1cc(-c2ccc(C(=N)NC(C)C)cc2)oc1-c1ccc(C(=N)NC(C)C)cc1` [Compound 20, 2,5-bis[4-(N-isopropylamidino)phenyl]-3-methylfuran], the half-inhibitory concentration (IC50) in the data set on Giardia lamblia (Giardia duodenalis) is 4.4 µM; in data set [4], 50 to 100 µM; in data set [1], 3 µM; in data set [2], 1 to 2 µM.

On to `N=C(N)c1ccc(OCCCCCOc2ccc(C(=N)N)cc2)cc1` [Pentamidine, reference compound], for which the response vs control in vivo at 22.1 µM with Pneumocystis carinii (setting [7]) amounted to 3.66%. Also, the Toxicity entry with Pneumocystis carinii (dosage 22.1 µM/kg/day intravenous) was “+2”.

For orientation: IC50 means the concentration at which inhibition is half-maximal.

For the origin of these results see EP0792271B1, “FURAN DERIVATIVES FOR INHIBITING PNEUMOCYSTIS CARINII PNEUMONIA, GIARDIA LAMBLIA AND CRYPTOSPORIDIUM PARVUM” (priority 1994, dated 1996).
